For 18 compounds, IC50 and Ki results are on record in ChEMBL document CHEMBL1909046, “DrugMatrix in vitro pharmacology data”.

Assay [1] in a line: DRUGMATRIX: beta-Lactamase enzyme inhibition (substrate: Nitrocefin). Also on record: species or system Bacillus cereus. Particulars: Not Active = under 50% inhibition at 10 µM.
The target of assay [2] is 5-hydroxytryptamine receptor 4 (Cavia porcellus, UniProt O70528). The format is cell membranes, Dunkin-Hartley, Striatum, Membrane. Further: in other assays of this panel Not Active means under 50% inhibition at 10 µM.
The next assay has as its target Vasopressin V1a receptor (Homo sapiens, UniProt P37288). The format is cell membranes, Membrane. Particulars: hek293. Further: in other assays of this panel Not Active means under 50% inhibition at 10 µM.
The nature of assay [3]: DRUGMATRIX: Glutamate, AMPA radioligand binding (ligand: [3H] AMPA). The format is cell membranes, Rattus norvegicus, Wistar, Cerebral cortex, Membrane. As to conditions: Not Active = under 50% inhibition at 10 µM.
The target of assay [4] is Matrix metalloproteinase-9 (Homo sapiens, UniProt P14780). The assay is described as follows: biochemical. It is filed as cell-based.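 Further: inhibition of isolated MMP-9 enzyme activity toward a synthetic peptide substrate, from the DrugMatrix protease screening panel; in other assays of this panel Not Active means under 50% inhibition at 10 µM.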
The target of the next assay is Adenosine receptor A2a (Homo sapiens, UniProt P29274). The assay is described as follows: DRUGMATRIX: Adenosine A2A radioligand binding (ligand: […]). As to conditions: Not Active = under 50% inhibition at 10 µM. It is filed as cell membranes, HEK293, Membrane.
A further assay has as its target T1, Glucocorticoid receptor (Homo sapiens, UniProt P04150). Further: in other assays of this panel Not Active means under 50% inhibition at 10 µM.
T1 sequence (P04150 whole entry): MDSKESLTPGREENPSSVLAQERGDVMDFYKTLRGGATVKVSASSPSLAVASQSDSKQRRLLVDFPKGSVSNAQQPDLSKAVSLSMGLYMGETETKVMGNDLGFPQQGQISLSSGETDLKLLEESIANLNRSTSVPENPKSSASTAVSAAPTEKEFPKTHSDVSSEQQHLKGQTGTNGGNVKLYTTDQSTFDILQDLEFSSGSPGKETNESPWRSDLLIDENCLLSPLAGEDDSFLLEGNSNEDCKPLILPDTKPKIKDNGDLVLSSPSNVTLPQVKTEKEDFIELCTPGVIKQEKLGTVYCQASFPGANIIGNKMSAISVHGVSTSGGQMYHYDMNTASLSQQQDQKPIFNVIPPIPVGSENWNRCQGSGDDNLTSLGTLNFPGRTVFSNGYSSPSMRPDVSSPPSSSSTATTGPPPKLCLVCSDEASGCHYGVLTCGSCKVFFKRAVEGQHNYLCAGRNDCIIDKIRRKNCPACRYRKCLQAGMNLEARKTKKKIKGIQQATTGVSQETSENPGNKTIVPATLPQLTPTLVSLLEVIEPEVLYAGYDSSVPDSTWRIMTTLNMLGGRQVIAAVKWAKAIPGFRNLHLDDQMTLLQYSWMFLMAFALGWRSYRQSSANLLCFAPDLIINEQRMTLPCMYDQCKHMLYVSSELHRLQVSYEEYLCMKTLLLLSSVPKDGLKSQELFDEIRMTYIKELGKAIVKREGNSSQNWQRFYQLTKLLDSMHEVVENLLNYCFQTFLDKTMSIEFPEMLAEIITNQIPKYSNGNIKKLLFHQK
Particulars: hela s3.

In the next assay the target is T2, Estrogen receptor (Homo sapiens, UniProt P03372). Further: in other assays of this panel Not Active means under 50% inhibition at 10 µM.
T2 sequence (P03372 whole entry): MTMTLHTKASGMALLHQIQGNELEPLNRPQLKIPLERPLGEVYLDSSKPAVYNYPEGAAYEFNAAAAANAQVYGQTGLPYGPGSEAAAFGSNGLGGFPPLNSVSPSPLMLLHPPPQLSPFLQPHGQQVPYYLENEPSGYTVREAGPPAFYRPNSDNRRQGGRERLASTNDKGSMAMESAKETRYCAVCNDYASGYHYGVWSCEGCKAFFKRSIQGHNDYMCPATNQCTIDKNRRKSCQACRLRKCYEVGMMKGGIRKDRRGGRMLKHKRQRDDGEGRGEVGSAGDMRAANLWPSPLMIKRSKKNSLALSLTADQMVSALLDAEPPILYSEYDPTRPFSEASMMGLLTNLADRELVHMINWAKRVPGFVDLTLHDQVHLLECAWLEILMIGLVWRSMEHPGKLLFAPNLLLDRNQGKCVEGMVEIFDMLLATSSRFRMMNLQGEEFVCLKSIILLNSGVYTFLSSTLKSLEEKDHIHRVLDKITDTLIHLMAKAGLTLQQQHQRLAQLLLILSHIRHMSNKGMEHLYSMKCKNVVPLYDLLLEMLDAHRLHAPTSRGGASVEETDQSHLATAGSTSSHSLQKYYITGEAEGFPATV
As to conditions: sf9.

Molecules are shown by their SMILES.

Chain of 5-hydroxytryptamine receptor 4 (O70528 whole entry): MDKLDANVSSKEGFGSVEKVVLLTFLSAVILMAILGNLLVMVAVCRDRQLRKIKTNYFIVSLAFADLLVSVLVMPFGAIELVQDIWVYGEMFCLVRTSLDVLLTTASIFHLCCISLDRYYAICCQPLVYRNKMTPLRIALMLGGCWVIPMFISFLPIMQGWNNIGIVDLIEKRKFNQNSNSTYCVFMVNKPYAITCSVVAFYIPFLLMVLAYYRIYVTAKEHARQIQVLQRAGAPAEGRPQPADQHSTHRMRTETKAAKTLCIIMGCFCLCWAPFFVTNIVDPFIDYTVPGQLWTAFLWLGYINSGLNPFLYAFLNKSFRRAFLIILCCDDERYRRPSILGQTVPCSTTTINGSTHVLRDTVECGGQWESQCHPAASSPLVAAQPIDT
Chain of Adenosine receptor A2a (P29274 whole entry): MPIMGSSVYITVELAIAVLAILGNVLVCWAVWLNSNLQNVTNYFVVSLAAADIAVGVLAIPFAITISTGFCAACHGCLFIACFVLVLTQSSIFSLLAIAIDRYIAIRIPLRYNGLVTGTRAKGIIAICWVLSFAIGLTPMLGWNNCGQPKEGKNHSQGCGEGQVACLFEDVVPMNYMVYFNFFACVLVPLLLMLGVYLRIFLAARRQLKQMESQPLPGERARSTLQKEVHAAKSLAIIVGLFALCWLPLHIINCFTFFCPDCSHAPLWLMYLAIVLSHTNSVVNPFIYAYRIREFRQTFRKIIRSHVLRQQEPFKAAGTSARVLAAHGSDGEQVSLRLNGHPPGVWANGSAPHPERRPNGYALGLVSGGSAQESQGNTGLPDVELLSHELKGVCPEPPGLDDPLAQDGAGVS
Chain of Vasopressin V1a receptor (P37288 whole entry): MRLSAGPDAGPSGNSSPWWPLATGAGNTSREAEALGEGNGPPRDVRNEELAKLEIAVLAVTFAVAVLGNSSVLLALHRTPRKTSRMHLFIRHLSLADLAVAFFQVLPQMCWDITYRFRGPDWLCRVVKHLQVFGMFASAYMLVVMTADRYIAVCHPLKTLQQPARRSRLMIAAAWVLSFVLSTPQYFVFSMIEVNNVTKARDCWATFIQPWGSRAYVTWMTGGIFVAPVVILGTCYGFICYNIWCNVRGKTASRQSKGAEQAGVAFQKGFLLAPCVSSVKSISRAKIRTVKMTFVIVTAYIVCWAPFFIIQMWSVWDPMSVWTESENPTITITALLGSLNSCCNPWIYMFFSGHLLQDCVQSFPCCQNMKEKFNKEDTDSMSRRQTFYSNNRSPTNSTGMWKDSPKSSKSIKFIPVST
Chain of Matrix metalloproteinase-9 (P14780 whole entry): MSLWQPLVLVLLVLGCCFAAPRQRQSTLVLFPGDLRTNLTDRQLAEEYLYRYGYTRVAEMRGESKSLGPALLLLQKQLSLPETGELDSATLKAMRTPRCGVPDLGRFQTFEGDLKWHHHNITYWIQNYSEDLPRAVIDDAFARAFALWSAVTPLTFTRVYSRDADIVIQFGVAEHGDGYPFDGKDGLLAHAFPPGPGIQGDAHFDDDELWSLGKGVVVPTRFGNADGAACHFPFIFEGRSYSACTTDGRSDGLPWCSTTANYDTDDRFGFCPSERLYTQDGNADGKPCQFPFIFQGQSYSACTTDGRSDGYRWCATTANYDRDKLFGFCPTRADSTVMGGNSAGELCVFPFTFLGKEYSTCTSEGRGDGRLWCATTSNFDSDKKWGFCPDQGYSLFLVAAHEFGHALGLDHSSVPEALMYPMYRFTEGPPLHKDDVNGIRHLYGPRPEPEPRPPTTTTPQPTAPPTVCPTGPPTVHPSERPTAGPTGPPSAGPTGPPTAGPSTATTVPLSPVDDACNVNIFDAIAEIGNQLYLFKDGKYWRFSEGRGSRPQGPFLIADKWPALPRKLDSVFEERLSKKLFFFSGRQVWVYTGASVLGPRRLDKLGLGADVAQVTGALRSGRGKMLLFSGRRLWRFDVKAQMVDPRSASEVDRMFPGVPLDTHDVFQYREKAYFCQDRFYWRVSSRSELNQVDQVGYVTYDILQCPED

On to `CNS(=O)(=O)Cc1ccc2[nH]cc(CCN(C)C)c2c1`, for which the IC50 result (in assay [1]; in assay [2]; at Vasopressin V1a receptor; in assay [3]; in assay [4]; at Adenosine receptor A2a (hek293)) was “Not Active” throughout. Besides, the IC50 result against Glucocorticoid receptor is listed as “Not Active”. In addition, the Ki result in assay [1] and in assay [3] was “Not Active” each time.

On to `CCCc1nn(C)c2c(=O)[nH]c(-c3cc(S(=O)(=O)N4CCN(C)CC4)ccc3OCC)nc12`, for which the IC50 entry in assay [1] is “Not Active”; in assay [2], “Not Active”; at Vasopressin V1a receptor, “Not Active”; in assay [3], “Not Active”; in assay [4] it was “Not Active”; on Adenosine receptor A2a (read-out: IC50) it was 253 nM. On Glucocorticoid receptor, the IC50 result is reported as “Not Active”. Moreover, the Ki entry in assay [1] was “Not Active”; in assay [3], “Not Active”; on Adenosine receptor A2a (read-out: Ki), 142 nM.

With `CCOC(N)=O`, the concentration for half-maximal inhibition (IC50) entry (in assay [1]; in assay [2]; on Vasopressin V1a receptor; in assay [3]; in assay [4]; at Adenosine receptor A2a (hek293)) was “Not Active” each time. For the same compound, at Estrogen receptor, the IC50 entry is recorded as “Not Active”. Moreover, the Ki result in assay [1] and in assay [3] was “Not Active” each time.

In the case of `O=c1[nH]c2ccccc2n1CCCN1CCC(n2c(=O)[nH]c3cc(Cl)ccc32)CC1` [DOMPERIDONE], the IC50 entry (in assay [2]; against Vasopressin V1a receptor; in assay [4]; at Adenosine receptor A2a (hek293); against Glucocorticoid receptor) was “Not Active” each time.

For the compound `CC1=C(CC(=O)O)c2cc(F)ccc2/C1=C\c1ccc(S(C)(=O)=O)cc1` [EXISULIND], the IC50 result (in assay [1]; in assay [2]; on Vasopressin V1a receptor; in assay [3]; in assay [4]; on Adenosine receptor A2a (hek293)) was “Not Active” each time. On Estrogen receptor, the IC50 entry was “Not Active”. In addition, the Ki entry in assay [1] and in assay [3] was “Not Active” each time.

In the case of `CN1C2CCCC1CC(NC(=O)c1nn(C)c3ccccc13)C2` (stereo not given) [GRANISETRON], the IC50 entry (in assay [2]; against Vasopressin V1a receptor; in assay [4]; on Adenosine receptor A2a (hek293); on Estrogen receptor) was “Not Active” each time.

On to `CC[C@@H](CO)NC(=O)[C@@H]1C=C2c3cccc4c3c(cn4C)C[C@H]2N(C)C1` [METHYSERGIDE], for which the IC50 entry (in assay [2]; against Vasopressin V1a receptor; in assay [4]; on Adenosine receptor A2a (hek293); against Estrogen receptor) was “Not Active” each time.

As for `CCN(CC)CC#CCOC(=O)C(O)(c1ccccc1)C1CCCCC1` (stereo not given) [OXYBUTYNIN], the IC50 entry (in assay [2]; at Vasopressin V1a receptor; in assay [4]; at Adenosine receptor A2a (hek293); against Glucocorticoid receptor) was “Not Active” throughout.

`CN(CCOc1ccc(CC2SC(=O)NC2=O)cc1)c1ccccn1` (stereo not given) [ROSIGLITAZONE]: the IC50 result (in assay [1]; in assay [2]; on Vasopressin V1a receptor; in assay [3]; in assay [4]; on Adenosine receptor A2a (hek293)) was “Not Active” in each case. Moreover, at Estrogen receptor, the IC50 result is listed as “Not Active”. Further, the Ki entry in assay [1] and in assay [3] was “Not Active” each time.

As to `CO[C@H]1C[C@@H]2CC[C@@H](C)[C@@](O)(O2)C(=O)C(=O)N2CCCC[C@H]2C(=O)O[C@H]([C@H](C)C[C@@H]2CC[C@@H](O)[C@H](OC)C2)CC(=O)[C@H](C)/C=C(\C)[C@@H](O)[C@@H](OC)C(=O)[C@H](C)C[C@H](C)/C=C/C=C/C=C/1C` [SIROLIMUS], the IC50 entry (in assay [1]; in assay [2]; at Vasopressin V1a receptor; in assay [3]; in assay [4]; at Adenosine receptor A2a (hek293)) was “Not Active” throughout. Further, the IC50 result at Estrogen receptor is “Not Active”. Further, the inhibitory constant (Ki) result in assay [1] and in assay [3] was “Not Active” in each case.

For the compound `Nc1ccc(S(=O)(=O)Nc2ncccn2)cc1` [SULFADIAZINE], the IC50 entry (in assay [1]; in assay [2]; at Vasopressin V1a receptor; in assay [3]; in assay [4]; on Adenosine receptor A2a (hek293)) was “Not Active” each time. In addition, the Ki entry in assay [1] and in assay [3] was “Not Active” throughout.

With `COc1ncnc(NS(=O)(=O)c2ccc(N)cc2)c1OC` [SULFADOXINE], the IC50 entry (in assay [1]; in assay [2]; against Vasopressin V1a receptor; in assay [3]; in assay [4]; at Adenosine receptor A2a (hek293)) was “Not Active” in each case. Moreover, the IC50 entry against Estrogen receptor is given as “Not Active”. The Ki entry in assay [1] and in assay [3] was “Not Active” in each case.

In the case of `C[C@]12CC[C@H]3[C@@H](CCC4=CC(=O)CC[C@@]43C)[C@@H]1CC[C@@H]2O` [TESTOSTERONE], the IC50 result (in assay [1]; in assay [2]; against Vasopressin V1a receptor; in assay [3]; in assay [4]; at Adenosine receptor A2a (hek293)) was “Not Active” each time. Moreover, the IC50 result at Estrogen receptor was “Not Active”. The inhibition constant Ki result in assay [1] and in assay [3] was “Not Active” in each case.

On to `CCS(=O)(=O)CCn1c([N+](=O)[O-])cnc1C` [TINIDAZOLE], for which the IC50 entry (in assay [1]; in assay [2]; on Vasopressin V1a receptor; in assay [3]; in assay [4]; at Adenosine receptor A2a (hek293)) was “Not Active” in each case. Also, the IC50 result on Estrogen receptor is reported as “Not Active”. Also, the inhibition constant Ki entry in assay [1] and in assay [3] was “Not Active” each time.

In the case of `NC[C@H]1O[C@H](O[C@H]2[C@H](O)[C@@H](O[C@H]3O[C@H](CO)[C@@H](O)[C@H](N)[C@H]3O)[C@H](N)C[C@@H]2N)[C@H](N)C[C@@H]1O` [TOBRAMYCIN], the concentration for half-maximal inhibition (IC50) entry (in assay [1]; in assay [2]; on Vasopressin V1a receptor; in assay [3]; in assay [4]; at Adenosine receptor A2a (hek293)) was “Not Active” each time. Further, the IC50 result at Estrogen receptor was “Not Active”. In addition, the Ki entry in assay [1] and in assay [3] was “Not Active” in each case.

With `O=c1n(CCCN2CCN(c3cccc(Cl)c3)CC2)nc2ccccn12` [TRAZODONE], the IC50 result (in assay [2]; against Vasopressin V1a receptor; in assay [4]; on Adenosine receptor A2a (hek293)) was “Not Active” each time.

On to `O=C(O)C(Cl)(Cl)Cl` [TRICHLOROACETIC ACID], for which the IC50 entry (in assay [1]; in assay [2]; at Vasopressin V1a receptor; in assay [3]; in assay [4]; on Adenosine receptor A2a (hek293)) was “Not Active” throughout. The Ki entry in assay [1] and in assay [3] was “Not Active” throughout.

Regarding `CC(=O)O[C@H]1C[C@@H]2CC[C@@H]3[C@H](CC[C@@]4(C)[C@H]3C[C@H]([N+]3(C)CCCCC3)[C@@H]4OC(C)=O)[C@@]2(C)C[C@@H]1N1CCCCC1.[Br-]` [VECURONIUM BROMIDE], the IC50 entry (in assay [1]; in assay [2]; at Vasopressin V1a receptor; in assay [3]; in assay [4]; at Adenosine receptor A2a (hek293)) was “Not Active” in each case. Further, on Estrogen receptor, the IC50 result is listed as “Not Active”. In addition, the inhibitory constant (Ki) result in assay [1] and in assay [3] was “Not Active” each time.

The term IC50 denotes the concentration that inhibits the measured activity by half. One may read the Ki as a measure of affinity in units of concentration, obtained from inhibition or displacement.
